Results from patent publication EP0672658B1, “Antithrombotic agents” (priority 1994, dated 1995).
Where a name gives a salt, the structure may show the parent alone.

Columns and labels:
[1] = test system: human or animal plasma; test: Anticoagulation determination in plasma: thrombin time (TT); type: biochemical; details: concentration doubling thrombin time
Protocol: (§1) Dog plasma and rat plasma is obtained from conscious mixed-breed hounds (either sex, Hazelton-LRE, Kalamazoo, Michigan, U.S.A.) or from anesthetized male Sprague-Dawley rats (Harlan Sprague-Dawley, Inc., Indianapolis, Indiana, U.S.A.) by venipuncture into 3.8 percent citrate. Fibrinogen is prepared from in-date ACD human blood as the fraction I-2 according to previous procedures and specifications. Smith, Biochem. J., 185, 1-11 (1980); and Smith, et al., Biochemistry, 11, 2958-2967 (1972). Human fibrinogen is also purchased as 98 percent pure/plasmin free from American Diagnostica, Greenwich, Connecticut. Coagulation reagents ACTIN, Thromboplastin, and Human plasma are from Baxter Healthcare Corp., Dade Division, Miami, Florida. Bovine thrombin from Parke-Davis (Ann Detroit, Michigan) is used for coagulation assays in plasma.
(§2) Coagulation assay procedures are as previously described. Smith, et al., Thrombosis Research, 50, 163-174 (1988). A CoAScreener coagulation instrument (American LABor, Inc.) is used for all coagulation assay measurements. The prothrombin time (PT) is measured by adding 0.05 mL saline and 0.05 mL Thromboplastin-C reagent to 0.05 mL test plasma. The activated partial thromboplastin time (APTT) is measured by incubation of 0.05 mL test plasma with 0.05 mL Actin reagent for 120 seconds followed by 0.05 mL CaCl2 (0.02 M). The thrombin time (TT) is measured by adding 0.05 mL saline and 0.05 mL thrombin (10 NIH units/mL) to 0.05 mL test plasma. The compounds of Formula I are added to human or animal plasma over a wide range of concentrations to determine prolongation effects on the APTT, PT, and TT assays. Linear extrapolations are performed to estimate the concentrations required to double the clotting time for each assay.

[2] = test system: human or animal plasma; test: Anticoagulation determination in plasma: prothrombin time (PT); type: biochemical; details: concentration doubling prothrombin time
Protocol: as §1, §2

[3] = test system: human or animal plasma; test: Anticoagulation determination in plasma: activated partial thromboplastin time (APTT); type: biochemical; details: concentration doubling activated partial thromboplastin time
Protocol: as §1, §2

[4] = target: Human Thrombin (Homo sapiens, UniProt P00734); test: biochemical; details: read-out: Kass Human Thrombin (converted)
[5] = target: T1, Trypsin (Bos taurus, UniProt P00760); test: biochemical; design: species or system Bovine; details: read-out: Kass Trypsin (converted)
T1 sequence (P00760 24-246): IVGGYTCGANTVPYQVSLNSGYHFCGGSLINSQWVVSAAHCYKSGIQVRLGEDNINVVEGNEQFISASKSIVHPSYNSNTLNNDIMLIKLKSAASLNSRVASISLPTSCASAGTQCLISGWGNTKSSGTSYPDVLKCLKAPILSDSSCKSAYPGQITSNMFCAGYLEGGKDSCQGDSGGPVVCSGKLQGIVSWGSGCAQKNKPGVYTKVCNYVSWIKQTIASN
Protocol: By substantially following the procedures described above for human thrombin, and using other human blood coagulation system serine proteases and proteases of the fibrinolytic system with the appropriate chromogenic substrates, identified below, selectivity of the compounds of the present invention with respect to the coagulation factor serine proteases and with respect to the fibrinolytic system serine proteases are evaluated as well as their substantial lack of interference with serine proteases of the fibrinolytic system. Thrombin inhibitors preferably should spare fibrinolysis induced by urokinase, tissue plasminogen activator (t-PA) and streptokinase. This would be important to the therapeutic use of such agents as an adjunct to streptokinase, t-PA or urokinase thrombolytic therapy and to the use of such agents as an endogenous fibrinolysis-sparing (with respect to t-PA and urokinase) antithrombotic agent. In addition to the lack of interference with the amidase activity of the fibrinolytic proteases, such fibrinolytic system sparing can be studied by the use of human plasma clots and their lysis by the respective fibrinolytic plasminogen activators.
Human factors X, Xa, IXa, XIa, and XIIa are purchased from Enzyme Research Laboratories, South Bend, Indiana; human urokinase from Leo Pharmaceuticals, Denmark; and recombinant activated Protein C (aPC) is prepared at Eli Lilly and Co. substantially according to U.S. Patent 4,981,952. Chromogenic substrates: N-Benzoyl-Ile-Glu-Gly-Arg-p-nitroanilide (for factor Xa); N-Cbz-D-Arg-Gly-Arg-p-nitroanilide (for factor IXa assay as the factor Xa substrate); Pyroglutamyl-Pro-Arg-p-nitroanilide (for Factor XIa and for aPC); H-D-Pro-Phe-Arg-p-nitroanilide (for factor XIIa); and Pyroglutamyl-Gly-Arg-p-nitroanilide (for urokinase); are purchased from KabiVitrum, Stockholm, Sweden, or from Midwest Biotech, Fishers, Indiana. Bovine trypsin is purchased from Worthington Biochemicals, Freehold, New Jersey, and human plasma kallikrein from Kabi Vitrum, Stockholm, Sweden. Chromogenic substrate H-D-Pro-Phe-Arg-p-nitroanilide for plasma kallikrein is purchased from Kabi Vitrum, Stockholm, Sweden. N-Benzoyl-Phe-Val-Arg-p-nitroanilide, the substrate for human thrombin and for trypsin, is synthesized according to procedures described above for the compounds of the present invention, using known methods of peptide coupling from commercially available reactants or purchased from Midwest Biotech, Fishers, Indiana.

Row | Structure (SMILES) | Human Plasma Anticoagulation 2x Clotting time (ng/mL) TT [1] | Human Plasma Anticoagulation 2x Clotting time (ng/mL) PT [2] | Human Plasma Anticoagulation 2x Clotting time (ng/mL) APTT [3] | Kd [4] | Kd [5]
1 | CCS(=O)(=O)N[C@H](Cc1ccccc1)C(=O)N1CCC[C@H]1C(=O)NCCc1cccc(NC(=N)N)c1 [Example 37, EtSO2-D-Phe-Pro-m-NHCH2CH2C6H4NHC(NH)NH2·HCl] | >9,000 ng/mL | >9,000 ng/mL | >9,000 ng/mL | 50000 nM | > 111000 nM
2 | Nc1ccc(CNC(=O)[C@@H]2CCCN2C(=O)[C@@H](CC2CCCCC2)NCC(=O)O)cc1 [Example 62, HO2CCH2-D-Cha-Pro-4-NHCH2C6H4NH2·HCl] | 54 ng/mL |  |  | 132 nM | 
3 | Nc1ccc(CCNC(=O)[C@@H]2CCCN2C(=O)[C@@H](CC2CCCCC2)NCC(=O)O)cc1 [Example 63, HO2CCH2-D-Cha-Pro-4-NHCH2CH2C6H4NH2·HCl] | 680 ng/mL |  |  | 3230 nM | 
4 | N=C(N)c1ccc(CNC(=O)[C@@H]2CCCN2C(=O)[C@@H](CC2CCCCC2)NCC(=O)O)s1 [Example 65] | 1 ng/mL |  |  |  | 1.75 nM
5 | N=C(N)c1ccc(CNC(=O)[C@@H]2CCCN2C(=O)[C@@H](CC2CCCCC2)NCC(=O)O)nc1 [Example 66, HO2CCH2-D-Cha-Pro-2-NHCH2-5-amidinopyridine·HCl] | 7.9 ng/mL | 270 ng/mL | 180 ng/mL | 8.33 nM | 217 nM
6 | N=C(N)C1CCC(CNC(=O)[C@@H]2CCCN2C(=O)[C@@H](CC2CCCCC2)NCC(=O)O)NC1 (stereo partly drawn) [Example 67, HO2CCH2-D-Cha-Pro-2-NHCH2-5-amidinopiperidine·HCl] | 34. ng/mL | 1,300 ng/mL | 1,800 ng/mL | 90.9 nM | 
7 | N=C(N)C1=CNC(CNC(=O)[C@@H]2CCCN2C(=O)[C@@H](CC2CCCCC2)NCC(=O)O)CC1 (stereo partly drawn) [Example 68, HO2CCH2-D-Cha-Pro-2-NHCH2-5-amidino-5,6-dehydro-piperidine·HCl] | 4. ng/mL | 190 ng/mL | 49 ng/mL | 1.67 nM | 
8 | Nc1cc(CNC(=O)[C@@H]2CCCN2C(=O)[C@@H](CC2CCCCC2)NCC(=O)O)ccn1 [Example 73, HO2CCH2-D-Cha-Pro-4-NHCH2-2-aminopyridine·HCl] | 21 ng/mL | 330 ng/mL | 340 ng/mL | 35.7 nM | 
9 | Nc1ccc(CNC(=O)[C@@H]2CCCN2C(=O)[C@@H](CC2CCCCC2)NCC(=O)O)cn1 [Example 74, HO2CCH2-D-Cha-Pro-5-NHCH2-2-aminopyridine·HCl] | 20 ng/mL | 350 ng/mL | 420 ng/mL | 34.5 nM | 
10 | Nc1ccc(CCNC(=O)[C@@H]2CCCN2C(=O)[C@@H](CC2CCCCC2)NCC(=O)O)cn1 [Example 75, HO2CCH2-D-Cha-Pro-5-NHCH2CH2-2-aminopyridine·HCl] |  |  |  | 2220 nM | 
11 | Nc1ccc(CNC(=O)[C@@H]2CCCN2C(=O)[C@@H](CC2CCCCC2)NCC(=O)O)cc1F [Example 77, HO2CCH2-D-Cha-Pro-4-NHCH2-2-F-aniline·HCl] | 53 ng/mL | 890 ng/mL | 1,600 ng/mL | 90.9 nM | 
12 | CCS(=O)(=O)N[C@H](CC1CCCCC1)C(=O)N1CCC[C@H]1C(=O)NCc1ccc(N)cc1F [Example 82, EtSO2-D-Cha-Pro-4-NHCH2-3-F-C6H3NH2·HCl] | 130 ng/mL | 3,000 ng/mL | 3,800 ng/mL | 200 nM | 
